Data from EP0341213A2, “5-Aryl-substituted-2,3-dihydro-imidazo [1,2-a]furo[3,2-c]- or thieno[2,3-c]pyridines” (SANDOZ AG, priority 1988, dated 1989).

How the values were obtained:
[1] = system: PAF-mediated bronchoconstriction; test: PAF-induced Pulmonary Inflation Pressure (PIP) Increase test (test B); type: in vivo; details: po
Procedure: Moreover, in view of their activity as PAF receptor antagonists, the compounds are indicated for use as inhibitors of PAF-mediated bronchoconstriction, which property is evaluated by the PAF-induced Pulmonary Inflation Pressure (PIP) Increase test (test B) as described in WO 88/587, to generate an EDso (dose needed to effect a 50°/o response).

[2] = biological target: T1, platelet activating factor (PAF) receptor (Homo sapiens, UniProt P25105); test: Human Platelet PAF Receptor Assay test (test A): inhibition of specific binding of [3H]-PAF to platelets
T1 construct: endogenous in cells; host or cells: human platelets
Excerpt: The compounds of formula I in free base form or in pharmaceutically acceptable acid addition salt form, hereinafter referred to as "the compounds", are indicated for use as platelet activating factor (PAF) receptor antagonists, as indicated by their ability to inhibit specific binding of [^3H)-PAF to platelets according to the Human Platelet PAF Receptor Assay test (test A) as described in WO 88/587.

[3] = system: PAF-mediated extravasation; test: PAF-induced Extravasation test (test C), measured as a function of hemoconcentration; type: in vivo; details: po
Excerpt: Furthermore, the compounds are indicated for use as inhibitors of PAF-mediated extravasation (the extrusion of plasma from the lumen of the blood vessels into the vessel wall and surrounding tissues) measured as a function of hemoconcentration according to the PAF-induced Extravasation test (test C) as described in WO 88/587. From the values obtained an EDso is generated.

T1 sequence (P25105 whole entry): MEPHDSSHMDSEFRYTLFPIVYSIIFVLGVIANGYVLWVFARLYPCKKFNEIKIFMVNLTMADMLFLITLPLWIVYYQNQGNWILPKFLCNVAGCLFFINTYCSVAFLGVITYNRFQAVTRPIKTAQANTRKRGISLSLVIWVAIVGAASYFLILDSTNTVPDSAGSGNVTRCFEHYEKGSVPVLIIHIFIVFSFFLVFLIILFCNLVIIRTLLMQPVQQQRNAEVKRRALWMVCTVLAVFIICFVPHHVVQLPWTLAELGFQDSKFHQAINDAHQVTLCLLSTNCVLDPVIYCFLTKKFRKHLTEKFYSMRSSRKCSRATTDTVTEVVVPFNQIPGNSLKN

IC50 [2] [nM]	SMILES	ED50 ([1]; dose needed to effect a 50% response, read-out: EDso) [mg/kg]	ED50 [3] [mg/kg]	inhibition at 10 mg/kg ([1]; at 10 mg/kg p.o.) [%]	inhibition at 10 mg/kg ([3]; at 10 mg/kg p.o.) [%]
100	COc1cc(CCc2ccc(C3=Cc4ccsc4C4=NCCN34)cc2)cc(OC)c1OC [Example 1, 2,3-Dihydro-5-[4-[2-(3,4,5-trimethoxyphenyl)ethyl]phenyl]imidazo[1,2-a]thieno[2,3-c]pyridine]	1	1		
70	COc1cc(CCc2ccc(C3=Cc4oc(C)cc4C4=NCCN34)cc2)cc(OC)c1OC [Example 2, 2,3-Dihydro-8-methyl-5-[4-[2-(3,4,5-trimethoxyphenyl)ethyl]phenyl]imidazo[1,2-a]furo[3,2-c]pyridine]			38	59
